Entries after “also recorded” stand apart in the source; their conditions may differ.

The test system of assay [1] is rat model of migraine (Cortical Spreading Depression, CSD). As to the kind of experiment: Cortical spreading depression (CSD) rat model of migraine: number of KCl-induced direct current (DC) potentials. The assay is classed as in vivo, rat (Wistar). The following applies: for Number of DC: n = 10, mean ± SD. As for the experimental part: (§1) All animal experiments were carried out according to the National Institute of Health (NIH) guidelines for the care and use of laboratory animals, and approved by the Ethical Committee of the National Laboratory Animal Center, Kuopio, Finland. Altogether 77 adult male Wistar rats, purchased from Harlan, Netherlands, and weighing 250-350 g were used for the experiment. Animals were housed at a standard temperature (22±1° C.) and in a light-controlled environment (lights on from 7 am to 9 pm) with ad libitum access to food and water. Animals were grouped as follows: • 15 rats treated with SPM 927 (3 mg/kg; i.p.) 30 min before the CSD episode • 15 rats treated with SPM 927 (10 mg/kg; i.p.) 30 min before the CSD episode • 15 rats treated with SPM 927 (30 mg/kg; i.p.) 30 min before the CSD episode • 15 rats treated with Valproic acid (250 mg/kg; i.p.) 30 min before the CSD episode • 15 rats treated with Vehicle (2 ml/kg; i.p.) 30 min before CSD episode • 2 sham rats without CSD episode (topical NaCl application) and without any treatment Subgroups: • 10 rats to DC-potential, CBF, and blood pH, pO2, pCO2, glucose and mean arterial pressure analysis (rats killed at 30 min after CSD, brains fresh-frozen) • 5 rats to jugular vein cannulation (CGRP sampling) and dural as well as cortical CGRP immunocytochemistry (rats killed at 15 min after CSD)
Rats were anaethetized with Equithesin (3 ml/kg) and placed in a stereotactic frame. The rectal temperature was maintained at 37.0±1.0° C. with a homeothermic blanket system. A polyethylene catheter was inserted into the femoral artery in order to monitor arterial blood pressure and take blood samples for arterial pH, pO2, pCO2 and glucose. The arterial blood gases were measured with i-STAT portable clinical analyzer (I-STAT), arterial blood pressure monitored with Cardiocap II blood pressure analyzer (datex-Ohmeda, Helsinki, Finland) and blood glucose with standard glucose meter (Arkray, Japan). The measurements were taken 10 min before as well as 5 min after the CSD episode. The skin was opened by a medical incision and retracted laterally. Three skull burr holes were drilled in a row unilaterally. One was placed over the frontal cortex, the second frontoparietally and the third one parietally (FIG. 1). A laser-Doppler flow probe (Oxyflow, Oxford Optronics, UK) to monitor CBF and a non-invasive tungsten electrode for measuring direct current (DC) potential shifts were placed in the frontal and frontoparietal burr holes on the intact dura, respectively. The laser-Doppler flow probe was positioned in an area free of large pial and dural vessels to minimize a large-vessel contribution to the signal. For the DC-potential measurement, a reference electrode was fixed in the neck. CSDs were elicited unilaterally by placing a KCl-soaked (3.0 M) piece of filter paper on the parietal opening for 5 min. The KCl exposure was terminated by flushing the opening with saline and placing a dry piece of filter paper on the opening. The CBF and DC-potentials were monitored continuously starting from 5 minutes before CSD and continuing up to 30 min after the KCl exposure.
All values were calculated as mean±standard deviation (SD) and differences were considered to be statistically significant as the P<0.05 level. Statistical analysis was performed using StatsDirect statistical software. Differences among means were analyzed by using one-way analysis of variance (ANOVA). […]

The test system of assay [2] is Calcitonin gene-related peptide (CGRP). As to the kind of experiment: CSD-induced CGRP release in jugular vein blood (CGRP EIA). The assay is classed as in vivo, rat (Wistar). Particulars: for CGRP release expressed as percent of baseline levels, 10-15 min: 10-15 min after induction of CSD; for CGRP release expressed as percent of baseline levels, 10-15 min / CGRP release expressed as percent of baseline levels, 20-25 min / CGRP release expressed as percent of baseline levels, Baseline: n = 5; for CGRP release expressed as percent of baseline levels, 20-25 min: 20-25 min after induction of CSD; for CGRP release expressed as percent of baseline levels, Baseline: baseline (before CSD). How it is done: as §1
Following anesthesia (before CSD), a catheter was placed into the right jugular vein. 0.250 ml of blood was taken through the catheter for baseline measurement. For time course experiments further samples were taken at 10-15 and 20-25 min following initiation of CSD. Samples were stored in prepared Eppendorf tubes containing the protease inhibitors aprotinin (1000 KU, Bayer, Germany) and Pefabloc™ (1 mg/ml, Boehringer Mannheim, Germany), immediately cold centrifuged and stored at −80° C. The samples were acidified with trifluoroacetic acid and centrifuged at 6000 g for 20 min. The supernatant was extracted with Sep-Pak C-18 cartridges (Millipore, Waters, UK). Eluates were concentrated (dried) and dissolved in EIA buffer. CGRP concentrations were detected using a commercial CGRP EIA kit (S-3006, Bachem Distribution GmbH) according to the manufacturer's instructions.
All values were calculated as mean±standard deviation (SD) and differences were considered to be statistically significant as the P<0.05 level. Statistical analysis was performed using StatsDirect statistical software. Differences among means were analyzed by using one-way analysis of variance (ANOVA). Dunnet's post-hoc test was applied for multiple comparisons with a control group.

[3] abbreviates: rat model of migraine, pre-treatment, 3 doses.

`CCCC(CCC)C(=O)O` [Valproic acid, reference compound]: the “Number of DC” value in assay [1] (250 mg/kg i.p. 30 min before CSD episode) is on record as 3.7 ± 0.3. In assay [2] (250 mg/kg i.p.), the “CGRP release expressed as percent of baseline levels, 10-15 min” value was found to be 56 ± 8%; the “CGRP release expressed as percent of baseline levels, 20-25 min” value is recorded as 71 ± 15%; the “CGRP release expressed as percent of baseline levels, Baseline” value worked out at 100 ± 0%.
In the case of `COC[C@@H](NC(C)=O)C(=O)NCc1ccccc1` [SPM 927, (R)-2-acetamide-N-benzyl-3-methoxypropionamide], the results for the “Number of DC” value in assay [1] (3 mg/kg i.p. 30 min before CSD episode), in assay [1] (10 mg/kg i.p. 30 min before CSD episode) and in assay [1] (30 mg/kg i.p. 30 min before CSD episode) were 4.2 ± 0.4, 3.3 ± 0.4 and 3.5 ± 0.6, respectively. Moreover, the “Effect on CSD / number of CSD-induced DC-potentials (in words)” value in assay [1] (setting [3]) is reported as “reduces; also recorded: significant suppression”. Besides, the figures for the “CGRP release expressed as percent of baseline levels, 10-15 min” value in assay [2] (3 mg/kg i.p.), in assay [2] (10 mg/kg i.p.) and in assay [2] (30 mg/kg i.p.) were 126 ± 45%, 114 ± 27% and 92 ± 53%, respectively. In addition, the entries for the “CGRP release expressed as percent of baseline levels, 20-25 min” value in assay [2] (3 mg/kg i.p.), in assay [2] (10 mg/kg i.p.) and in assay [2] (30 mg/kg i.p.) were 35 ± 7%, 66 ± 31% and 71 ± 12%, respectively. The “CGRP release expressed as percent of baseline levels, Baseline” value in assay [2] (3 mg/kg i.p.), in assay [2] (10 mg/kg i.p.) and in assay [2] (30 mg/kg i.p.) was 100 ± 0% throughout. Moreover, in assay [2] (setting [3]), the “Effect on CSD-induced CGRP release / CGRP levels in blood (in words)” value was “reduces; also recorded: significant suppression”.

(Values after US8008351B2, “Methods for prophylaxis or treatment of conditions associated with cortical spreading depression” (UCB Pharma GmbH, priority 2004, dated 2011).)
